Assay results as given in patent publication US11214803B2, “Modulators of YAP1 expression” (Ionis Pharmaceuticals, Inc., priority 2019, dated 2022).
Strand notation (5' to 3'): a small letter for the sugar, then the base; units joined by * are phosphorothioate-linked, units joined directly phosphodiester-linked; [ ] holds rarer units or linkages, { } end groups; capitals alone tell only the bases. k = constrained ethyl (cEt); [5mC] = 5-methylcytosine; d = 2'-deoxy (DNA)

Tested on: Yap1 mRNA
Test: Antisense inhibition of human Yap1 in A-431 cells by cEt gapmers, single dose (Example 2, RTS4814)
Assay type: cell-based
Procedure, shortened: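 A-431 cells (5,000/well) took up 2,000 nM 3-10-3 cEt gapmer by free uptake for ~48 h. Yap1 mRNA was quantified by qRT-PCR with primer probe set RTS4814, normalized to RIBOGREEN total RNA, and reported as % of untreated control.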

[1] = A-431 cells, 5,000 cells per well, free uptake, 2,000 nM modified oligonucleotide, approx. 48 hours, RTS4814, normalized to RIBOGREEN, Table 4, asterisk (*) = targets amplicon region of primer probe set
[2] = Yap1 mRNA as percent of untreated control, A-431 cells, 3-10-3 cEt gapmers targeting SEQ ID NO.: 1, and 2, Table 30
[3] = Table 5, A-431 cells, 5,000 cells per well, free uptake, 2,000 nM modified oligonucleotide, approx. 48 hours, RTS4814, normalized to RIBOGREEN, Yap1 mRNA relative to untreated control cells
[4] = Table 21, Yap1 mRNA, percent of untreated control, 3-10-3 cEt gapmers targeting SEQ ID NO.: 1 and 2
[5] = Table 23, Yap1 mRNA as percent of untreated control, 3-10-3 cEt gapmers, single dose
[6] = Table 20, Yap1 mRNA, percent of untreated control, 3-10-3 cEt gapmers targeting SEQ ID NO.: 1 and 2
[7] = Table 33, Yap1 mRNA, percent of untreated control, 3-10-3 cEt gapmers targeting SEQ ID NO.: 1, and 2
[8] = Table 6, A-431 cells, 5,000 cells per well, free uptake, 2,000 nM modified oligonucleotide, approx. 48 hours, RTS4814, normalized to RIBOGREEN, Yap1 mRNA relative to untreated control cells

“716373 (k[5mC]*kA*kA*d[5mC]*dT*dG*d[5mC]*dA*dG*dA*dG*dA*dA*kG*k[5mC]*kT; antisense) [Compound 716373]” was tested. Which “YAP1 (% UTC)” value [1] did it give?
The value was 69 % UTC.

“1075120 (kA*kA*kT*dT*dA*dG*d[5mC]*d[5mC]*dT*dA*d[5mC]*d[5mC]*dA*k[5mC]*k[5mC]*kT; antisense) [compound 1075120]” was tested. Which “YAP1 (% UTC)” value [2] did it give?
Its value is 42 % UTC.

Which “YAP1 (% UTC)” value [3] does the source give for “716485 (kA*k[5mC]*kT*dA*d[5mC]*d[5mC]*dA*dA*dT*dA*dT*dA*d[5mC]*kA*kT*kT; antisense) [Compound 716485]” here?
Its value is 84 % UTC.

Which “YAP1 (% UTC)” value [4] does the source give for “1076039 (kG*kA*kT*dT*dA*dG*dA*dG*d[5mC]*dT*dG*dT*dA*kT*kT*k[5mC]; antisense) [Compound 1076039]” here?
Its value is 29 % UTC.

Which “YAP1 (% UTC)” value [5] does the source give for “1075337 (kG*k[5mC]*kT*dT*dA*dT*dA*dT*d[5mC]*d[5mC]*dT*dG*dT*kA*kA*k[5mC]; antisense) [Compound 1075337]” here?
Its value is 48 % UTC.

With “1075881 (kG*kA*kT*dT*dA*dA*d[5mC]*dT*dA*d[5mC]*dA*d[5mC]*d[5mC]*kA*k[5mC]*kG; antisense) [Compound 1075881]” as the substance, how does the “YAP1 (% UTC)” value [5] read?
The value was 23 % UTC.

How did the “YAP1 (% UTC)” value (Table 19, A-431 cells, 5,000 cells per well, free uptake, 2,000 nM modified oligonucleotide, approx. 48 hours, RTS4814, normalized to RIBOGREEN, Yap1 mRNA as percent of untreated control) turn out when “1074661 (antisense kG*kA*kA*dT*dT*dT*d[5mC]*dA*dT*dT*dA*d[5mC]*dT*kA*k[5mC]*kT) [Compound 1074661]” was run?
The value was 36 % UTC.

For “1075878 (kG*kA*kT*dT*dA*dT*d[5mC]*dA*dA*dG*dT*dA*dG*kT*kT*kT; antisense) [Compound 1075878]”, which “YAP1 (% UTC)” value [6] is on record?
The value was 35 % UTC.

Which “YAP1 (% UTC)” value [7] does the source give for “1074963 (antisense kT*kA*kG*dG*d[5mC]*dA*dA*dG*d[5mC]*dA*dG*d[5mC]*dT*kA*kA*kA) [compound 1074963]” here?
The value was 76 % UTC.

Which “YAP1 (% UTC)” value [1] does the source give for “716346 (kT*kT*kT*d[5mC]*d[5mC]*d[5mC]*dT*dG*dG*d[5mC]*dG*dG*d[5mC]*kG*kG*k[5mC]; antisense) [Compound 716346]” here?
Its value is 77 % UTC.

With “716348 (kA*k[5mC]*kG*dG*dA*dG*dG*d[5mC]*d[5mC]*dG*dG*dA*d[5mC]*kA*kG*k[5mC]; antisense) [Compound 716348]” as the substance, how does the “YAP1 (% UTC)” value [8] read?
Its value is 107 % UTC.

How did the “YAP1 (% UTC)” value [8] turn out when “716447 (k[5mC]*k[5mC]*kA*dA*d[5mC]*d[5mC]*dA*dA*d[5mC]*d[5mC]*d[5mC]*d[5mC]*d[5mC]*k[5mC]*k[5mC]*kA; antisense) [Compound 716447]” was run?
The value was 97 % UTC.

With “1074192 (antisense kG*kA*k[5mC]*dG*dG*d[5mC]*dG*dG*dG*d[5mC]*d[5mC]*d[5mC]*dT*kG*k[5mC]*k[5mC]) [compound 1074192]” as the substance, how does the “YAP1 (% UTC)” value [2] read?
Its value is 108 % UTC.

For “716449 (kG*kG*kT*d[5mC]*dA*dT*dT*dT*dG*d[5mC]*d[5mC]*dT*dA*kG*kG*kT; antisense) [Compound 716449]”, which “YAP1 (% UTC)” value [3] is on record?
Its value is 49 % UTC.

For “1075347 (antisense k[5mC]*kA*kT*dA*dG*dG*dT*dA*dG*dG*d[5mC]*dA*dA*k[5mC]*kA*kA) [compound 1075347]”, which “YAP1 (% UTC)” value [7] is on record?
Its value is 20 % UTC.

With “1075687 (kT*kA*kA*dA*d[5mC]*dG*dA*dG*dT*dA*dA*dT*dG*kA*k[5mC]*kT; antisense) [Compound 1075687]” as the substance, how does the “YAP1 (% UTC)” value [4] read?
Its value is 23 % UTC.

Which “YAP1 (% UTC)” value (Table 18, A-431 cells, 5,000 cells per well, free uptake, 2,000 nM modified oligonucleotide, approx. 48 hours, RTS4814, normalized to RIBOGREEN, Yap1 mRNA as percent of untreated control) does the source give for “1075108 (antisense k[5mC]*kT*kA*dA*dA*dA*dA*d[5mC]*dA*dT*dT*dG*dT*kG*kG*k[5mC]) [Compound 1075108]” here?
Its value is 67 % UTC.

For “1076457 (antisense kG*kA*kA*d[5mC]*dT*dA*dT*dA*dA*dT*d[5mC]*dT*dT*kA*kT*kA) [Compound 1076457]”, which “YAP1 (% UTC)” value [5] is on record?
Its value is 74 % UTC.

With “1075175 (antisense kA*k[5mC]*kT*dG*dA*dA*dA*dG*dA*dT*dT*d[5mC]*d[5mC]*kA*kT*kG) [Compound 1075175]” as the substance, how does the “YAP1 (% UTC)” value [4] read?
Its value is 99 % UTC.

With “1074259 (antisense kT*k[5mC]*kA*dT*dA*dT*dT*d[5mC]*dT*dG*d[5mC]*dT*dG*k[5mC]*kA*k[5mC]) [compound 1074259]” as the substance, how does the “YAP1 (% UTC)” value [7] read?
The value was 38 % UTC.

With “1074182 (antisense kG*k[5mC]*k[5mC]*d[5mC]*dG*dG*dG*dA*dT*d[5mC]*d[5mC]*dA*dT*kG*kG*k[5mC]) [Compound 1074182]” as the substance, how does the “YAP1 (% UTC)” value [6] read?
Its value is 82 % UTC.
